Results: ChEMBL document CHEMBL3885861, “Open TG-GATES”

Species: Rattus norvegicus
Experiment: Open TG-GATES - Regimen: Daily Repeat
Format: toxicity, organism-based, Sprague-Dawley
Parameters: regimen Daily Repeat, gender Male, age 6 weeks
Details: in vivo, po, 10 mg/kg, route gavage, dose level Middle; for APTT / Bas / Eos / Fbg / Hb / Ht / Lym / MCH / MCHC / Mono / Neu / Plat / RBC / Ret: tissue Blood; for KIDNEY_L / KIDNEY_R / KIDNEY_TOTAL: tissue Kidney; for LIVER: tissue Liver; for ALP / ALT / AST / BUN / CRE / Ca / Cl / DBIL / GLC / IP / K / LDH / Na / PL / RALB / TBIL / TC / TG / TP / gamma-GTP: tissue Plasma

SMILES: O=C(CCCN1CCC(O)(c2ccc(Cl)cc2)CC1)c1ccc(F)cc1 [HALOPERIDOL]
- TERMINAL_BW (72 h, time 3 day): 211.5 g
- APTT (72 h, time 3 day): 16 s
- Bas (72 h, time 3 day): 0%
- Eos (72 h, time 3 day): 0.6%
- Fbg (72 h, time 3 day): 205.8 mg/dL
- Hb (72 h, time 3 day): 14.8 g/dL
- Ht (72 h, time 3 day): 44.6%
- Lym (72 h, time 3 day): 81.4%
- MCH (72 h, time 3 day): 21.3 pg
- MCHC (72 h, time 3 day): 33.3%
- Mono (72 h, time 3 day): 5.8%
- Neu (72 h, time 3 day): 12.2%
- Plat (72 h, time 3 day): 127.9 x10_4/uL
- RBC (72 h, time 3 day): 695.4 x10_4/ul
- Ret (72 h, time 3 day): 4.6%
- KIDNEY_L (72 h, time 3 day): 0.9 g
- KIDNEY_R (72 h, time 3 day): 0.9 g
- KIDNEY_TOTAL (72 h, time 3 day): 1.8 g
- LIVER (72 h, time 3 day): 10.3 g
- ALP (72 h, time 3 day): 873.2 IU/L
- ALT (72 h, time 3 day): 41 IU/L
- AST (72 h, time 3 day): 64 IU/L
- BUN (72 h, time 3 day): 22.2 mg/dL
- CRE (72 h, time 3 day): 0.5 mg/dL
- Ca (72 h, time 3 day): 11.3 mg/dL
- Cl (72 h, time 3 day): 106.2 meq/L
- DBIL (72 h, time 3 day): 0.002 mg/dL
- GLC (72 h, time 3 day): 180 mg/dL
- IP (72 h, time 3 day): 7.8 mg/dL
- K (72 h, time 3 day): 4.7 meq/L
- LDH (72 h, time 3 day): 95 IU/L
- Na (72 h, time 3 day): 138.8 meq/L
- PL (72 h, time 3 day): 177.8 mg/dL
- RALB (72 h, time 3 day): 4.2 g/dL
- TBIL (72 h, time 3 day): 0.2 mg/dL
- TC (72 h, time 3 day): 78.2 mg/dL
- TG (72 h, time 3 day): 156.2 mg/dL
- TP (72 h, time 3 day): 6.2 g/dL
- gamma-GTP (72 h, time 3 day): 1.2 IU/L
- TERMINAL_BW ([…], time 7 day): 234.1 g
- TERMINAL_BW ([…], time 14 day): 281.3 g
- TERMINAL_BW ([…], time 28 day): 341 g
- APTT ([…], time 7 day): 16.8 s
- Bas ([…], time 7 day): 0%
- Eos ([…], time 7 day): 0.4%
- Fbg ([…], time 7 day): 215.6 mg/dL
- Hb ([…], time 7 day): 15 g/dL
- Ht ([…], time 7 day): 44.6%
- Lym ([…], time 7 day): 75.4%
- MCH ([…], time 7 day): 21 pg
- MCHC ([…], time 7 day): 33.7%
- Mono ([…], time 7 day): 5%
- Neu ([…], time 7 day): 19.2%
- Plat ([…], time 7 day): 99.5 x10_4/uL
- RBC ([…], time 7 day): 717.6 x10_4/ul
- Ret ([…], time 7 day): 3.7%
- APTT ([…], time 14 day): 16.3 s
- Bas ([…], time 14 day): 0%
- Eos ([…], time 14 day): 0.2%
- Fbg ([…], time 14 day): 212.2 mg/dL
- Hb ([…], time 14 day): 14.7 g/dL
- Ht ([…], time 14 day): 43.9%
- Lym ([…], time 14 day): 75.6%
- MCH ([…], time 14 day): 20.3 pg
- MCHC ([…], time 14 day): 33.5%
- Mono ([…], time 14 day): 4.2%
- Neu ([…], time 14 day): 20%
- Plat ([…], time 14 day): 93.8 x10_4/uL
- RBC ([…], time 14 day): 722.2 x10_4/ul
- Ret ([…], time 14 day): 3.6%
- APTT ([…], time 28 day): 16 s
- Bas ([…], time 28 day): 0%
- Eos ([…], time 28 day): 0.4%
- Fbg ([…], time 28 day): 220.6 mg/dL
- Hb ([…], time 28 day): 15.3 g/dL
- Ht ([…], time 28 day): 45.8%
- Lym ([…], time 28 day): 78.8%
- MCH ([…], time 28 day): 19.5 pg
- MCHC ([…], time 28 day): 33.5%
- Mono ([…], time 28 day): 5.6%
- Neu ([…], time 28 day): 15.2%
- Plat ([…], time 28 day): 95.6 x10_4/uL
- RBC ([…], time 28 day): 788.6 x10_4/ul
- Ret ([…], time 28 day): 2.6%
- KIDNEY_L ([…], time 7 day): 1 g
- KIDNEY_R ([…], time 7 day): 1 g
- KIDNEY_TOTAL ([…], time 7 day): 1.9 g
- KIDNEY_L ([…], time 14 day): 1.1 g
- KIDNEY_R ([…], time 14 day): 1.1 g
- KIDNEY_TOTAL ([…], time 14 day): 2.2 g
- KIDNEY_L ([…], time 28 day): 1.2 g
- KIDNEY_R ([…], time 28 day): 1.2 g
- KIDNEY_TOTAL ([…], time 28 day): 2.4 g
- LIVER ([…], time 7 day): 10.8 g
- LIVER ([…], time 14 day): 12.3 g
- LIVER ([…], time 28 day): 13.4 g
- ALP ([…], time 7 day): 930.4 IU/L
- ALT ([…], time 7 day): 38.6 IU/L
- AST ([…], time 7 day): 66.8 IU/L
- BUN ([…], time 7 day): 20.2 mg/dL
- CRE ([…], time 7 day): 0.6 mg/dL
- Ca ([…], time 7 day): 11.4 mg/dL
- Cl ([…], time 7 day): 106.6 meq/L
- DBIL ([…], time 7 day): 0.004 mg/dL
- GLC ([…], time 7 day): 179.6 mg/dL
- IP ([…], time 7 day): 7.3 mg/dL
- K ([…], time 7 day): 4.6 meq/L
- LDH ([…], time 7 day): 84.8 IU/L
- Na ([…], time 7 day): 139 meq/L
- PL ([…], time 7 day): 174.4 mg/dL
- RALB ([…], time 7 day): 4 g/dL
- TBIL ([…], time 7 day): 0.3 mg/dL
- TC ([…], time 7 day): 84.8 mg/dL
- TG ([…], time 7 day): 123.8 mg/dL
- TP ([…], time 7 day): 6.2 g/dL
- gamma-GTP ([…], time 7 day): 1.8 IU/L
- ALP ([…], time 14 day): 773.8 IU/L
- ALT ([…], time 14 day): 29.2 IU/L
- AST ([…], time 14 day): 62.8 IU/L
- BUN ([…], time 14 day): 19.8 mg/dL
- CRE ([…], time 14 day): 0.4 mg/dL
- Ca ([…], time 14 day): 10.7 mg/dL
- Cl ([…], time 14 day): 107 meq/L
- DBIL ([…], time 14 day): 0.036 mg/dL
- GLC ([…], time 14 day): 184.2 mg/dL
- IP ([…], time 14 day): 7.8 mg/dL
- K ([…], time 14 day): 4.5 meq/L
- LDH ([…], time 14 day): 83.2 IU/L
- Na ([…], time 14 day): 138.4 meq/L
- PL ([…], time 14 day): 156 mg/dL
- RALB ([…], time 14 day): 4 g/dL
- TBIL ([…], time 14 day): 0.3 mg/dL
- TC ([…], time 14 day): 70.2 mg/dL
- TG ([…], time 14 day): 146 mg/dL
- TP ([…], time 14 day): 6.2 g/dL
- gamma-GTP ([…], time 14 day): 1.6 IU/L
- ALP ([…], time 28 day): 603.8 IU/L
- ALT ([…], time 28 day): 32.4 IU/L
- AST ([…], time 28 day): 66.8 IU/L
- BUN ([…], time 28 day): 20.4 mg/dL
- CRE ([…], time 28 day): 0.6 mg/dL
- Ca ([…], time 28 day): 10.7 mg/dL
- Cl ([…], time 28 day): 107.8 meq/L
- DBIL ([…], time 28 day): 0.062 mg/dL
- GLC ([…], time 28 day): 172.8 mg/dL
- IP ([…], time 28 day): 6.4 mg/dL
- K ([…], time 28 day): 4.7 meq/L
- LDH ([…], time 28 day): 72 IU/L
- Na ([…], time 28 day): 139.4 meq/L
- PL ([…], time 28 day): 141 mg/dL
- RALB ([…], time 28 day): 4.2 g/dL
- TBIL ([…], time 28 day): 0.3 mg/dL
- TC ([…], time 28 day): 63.6 mg/dL
- TG ([…], time 28 day): 133.4 mg/dL
- TP ([…], time 28 day): 6.7 g/dL
- gamma-GTP ([…], time 28 day): 1.6 IU/L
